Results taken from patent publication US8236301B2, “Lumican proteoglycan in the diagnosis and treatment of atherosclerosis” (The General Hospital Corporation, priority 2005, dated 2012).

Tested on: human umbilical vein endothelial cells (HUVECs)
Details: confluent HUVECs, single bolus of physiologic levels of H2O2, 5 hr
Description: HUVECs were treated with the indicated concentrations of H2O2 for 5 hours. The cells were harvested and the proteoglycans isolated and analyzed by Western blotting for lumican and biglycan.
Since lumican proteoglycan is deposited at enhanced levels in atherosclerosis-prone arteries, it is possible that lumican proteoglycan is generated by cultured human umbilical vein endothelial cells (HUVECs). The production of lumican proteoglycan by cultured human umbilical vein endothelial cells (HUVECs) was examined in vitro. Confluent HUVECs in complete media with serum and growth supplements were treated with a single bolus addition of varying concentrations of H2O2. After 5 hr the cells were washed and harvested as described previously (Kattapuram et al. (2005) Journal of Biological Chemnistry 280, 15340-15347). The proteoglycans were then extracted, isolated and analyzed by immunoblotting for lumican and biglycan.

OO [H2O2, Hydrogen Peroxide]
upregulation of biglycan (immunoblot): no upregulation | upregulation of Lumican-PG100 (immunoblot) (vs resting conditions): substantial upregulation
